The supplement of paper PMC13380429

How the values were obtained:
Conditions in all cases: 72 h
HepG2 [1] = assay: cell viability relative to DMSO; higher = less toxic
U2OS [2] = assay: as above
Vero E6 [3] = assay: as above
Calu-3 [4] = assay: as above
Caco-2 [5] = assay: as above
HepG2 [6] = assay: relative viability EC50 (midpoint between 100% and the lowest measured viability); higher = less toxic
U2OS [7] = assay: as above
Vero E6 [8] = assay: as above
Calu-3 [9] = assay: as above
Caco-2 [10] = assay: as above
HepG2 [11] = assay: drug sensitivity score (DSS) for viability; higher = more toxic; extreme values may be limits of the assay
U2OS [12] = assay: as above
Vero E6 [13] = assay: as above
Calu-3 [14] = assay: as above
Caco-2 [15] = assay: as above

| Compound | cell viability (HepG2 [1]; 1 nM) | cell viability (HepG2 [1]; 10 nM) | cell viability (HepG2 [1]; 100 nM) | cell viability (HepG2 [1]; 1000 nM) | cell viability (HepG2 [1]; 10000 nM) | cell viability (U2OS [2]; 1 nM) | cell viability (U2OS [2]; 10 nM) | cell viability (U2OS [2]; 100 nM) | cell viability (U2OS [2]; 1000 nM) | cell viability (U2OS [2]; 10000 nM) | cell viability (Vero E6 [3]; 1 nM) | cell viability (Vero E6 [3]; 10 nM) | cell viability (Vero E6 [3]; 100 nM) | cell viability (Vero E6 [3]; 1000 nM) | cell viability (Vero E6 [3]; 10000 nM) | cell viability (Calu-3 [4]; 1 nM) | cell viability (Calu-3 [4]; 10 nM) | cell viability (Calu-3 [4]; 100 nM) | cell viability (Calu-3 [4]; 1000 nM) | cell viability (Calu-3 [4]; 10000 nM) | cell viability (Caco-2 [5]; 1 nM) | cell viability (Caco-2 [5]; 10 nM) | cell viability (Caco-2 [5]; 100 nM) | cell viability (Caco-2 [5]; 1000 nM) | cell viability (Caco-2 [5]; 10000 nM) | relative viability EC50 (HepG2 [6]) | relative viability EC50 (U2OS [7]) | relative viability EC50 (Vero E6 [8]) | relative viability EC50 (Calu-3 [9]) | relative viability EC50 (Caco-2 [10]) | drug sensitivity score (HepG2 [11]) | drug sensitivity score (U2OS [12]) | drug sensitivity score (Vero E6 [13]) | drug sensitivity score (Calu-3 [14]) | drug sensitivity score (Caco-2 [15]) |
| --- | --- | --- | --- | --- | --- | --- | --- | --- | --- | --- | --- | --- | --- | --- | --- | --- | --- | --- | --- | --- | --- | --- | --- | --- | --- | --- | --- | --- | --- | --- | --- | --- | --- | --- | --- |
| CCCCc1nc(-c2ccc(OCCCN(CC)CC)cc2)cn1-c1ccc(Oc2ccc(Cl)cc2)cc1 [azeliragon] | 95.1% | 94.8% | 90.2% | 94% | 0.1% | 97.7% | 97.8% | 98.9% | 91% | 30.4% | 96.2% | 105% | 91.8% | 99.5% | 0% | 109% | 105% | 99.4% | 98.9% | 8.5% | 101% | 97% | 99.4% | 93.5% | 4.5% | 2.69 µM | 2.12 µM | 3.13 µM | 3.08 µM | 2.61 µM | 6.4 | 5.3 | 5.7 | 5.2 | 6.3 |
| CC(C)(CCCCCC(O)CCCCCC(C)(C)C(=O)O)C(=O)O [bempedoic-acid] | 102% | 98.2% | 107% | 98.2% | 102% | 97.6% | 97.2% | 97.7% | 100% | 100% | 106% | 104% | 98% | 100% | 98% | 90.2% | 92.3% | 87.2% | 92.1% | 92.6% | 98.5% | 95.6% | 96.8% | 96.1% | 95% | > 10 µM | > 10 µM | > 10 µM | > 10 µM | > 10 µM | 0 | 0 | 0 | 0 | 0 |
| O=C(CCCN1CCC(n2c(=O)[nH]c3ccccc32)CC1)c1ccc(F)cc1 [benperidol] | 103% | 107% | 107% | 107% | 97.5% | 98.2% | 108% | 98.1% | 106% | 96.1% | 105% | 96.2% | 98% | 100% | 95.9% | 101% | 88.1% | 82.4% | 94.4% | 99.1% | 102% | 99.2% | 98.1% | 102% | 103% | > 10 µM | > 10 µM | > 10 µM | > 10 µM | > 10 µM | 0 | 0 | 0 | 0 | 0 |
| CC(COc1ccccc1Cc1ccccc1)N1CCCCC1 (stereo not given) [benproperine] | 104% | 109% | 96.5% | 85.7% | 87.9% | 92.8% | 96.3% | 92% | 102% | 89.3% | 112% | 100% | 103% | 101% | 98.1% | 94.8% | 106% | 89% | 103% | 88.4% | 90.6% | 106% | 96.4% | 100% | 83.4% | > 10 µM | > 10 µM | > 10 µM | > 10 µM | > 10 µM | 1.5 | 0 | 0 | 0 | 0.3 |
| CC(C)(Oc1ccc(CCNC(=O)c2ccc(Cl)cc2)cc1)C(=O)O [bezafibrate] | 98.1% | 93.1% | 91.5% | 97.4% | 102% | 102% | 97% | 96.2% | 94% | 98.3% | 106% | 105% | 101% | 104% | 93.4% | 110% | 98.5% | 108% | 97% | 98.4% | 102% | 95.7% | 96.8% | 98% | 94.3% | > 10 µM | > 10 µM | > 10 µM | > 10 µM | > 10 µM | 0 | 0 | 0 | 0 | 0 |
| Brc1ccc(NC2C3CC4CC(C3)CC2C4)cc1 (stereo not given) [bromantan] | 105% | 100% | 92% | 106% | 94.3% | 102% | 99.6% | 101% | 96.9% | 101% | 101% | 100% | 99.5% | 108% | 98.8% | 89.6% | 90.6% | 98.3% | 102% | 87.9% | 104% | 95.9% | 104% | 99.9% | 92.8% | > 10 µM | > 10 µM | > 10 µM | > 10 µM | > 10 µM | 0 | 0 | 0 | 0 | 0 |
| CC(C)(C)NCC(O)c1cc(Br)no1 (stereo not given) [broxaterol] | 105% | 96.9% | 92.5% | 94.8% | 97.2% | 104% | 99.1% | 97.6% | 102% | 99.4% | 105% | 101% | 103% | 98.8% | 99.4% | 111% | 95.4% | 108% | 111% | 95.9% | 103% | 99.2% | 93% | 96.2% | 104% | > 10 µM | > 10 µM | > 10 µM | > 10 µM | > 10 µM | 0 | 0 | 0 | 0 | 0 |
